Test results: patent US20260216347A1, “Substituted Imidazo-Based Compounds as Ligand Directed Degraders of IRAK3” (Celgene Corporation, priority 2022, published 2026)

Molecular target: T1, IRAK3 (Homo sapiens, UniProt Q9Y616)
T1 construct: IRAK Endogenous HTRF Degradation Assay; endogenous in cells
T1 sequence (Q9Y616 1-596): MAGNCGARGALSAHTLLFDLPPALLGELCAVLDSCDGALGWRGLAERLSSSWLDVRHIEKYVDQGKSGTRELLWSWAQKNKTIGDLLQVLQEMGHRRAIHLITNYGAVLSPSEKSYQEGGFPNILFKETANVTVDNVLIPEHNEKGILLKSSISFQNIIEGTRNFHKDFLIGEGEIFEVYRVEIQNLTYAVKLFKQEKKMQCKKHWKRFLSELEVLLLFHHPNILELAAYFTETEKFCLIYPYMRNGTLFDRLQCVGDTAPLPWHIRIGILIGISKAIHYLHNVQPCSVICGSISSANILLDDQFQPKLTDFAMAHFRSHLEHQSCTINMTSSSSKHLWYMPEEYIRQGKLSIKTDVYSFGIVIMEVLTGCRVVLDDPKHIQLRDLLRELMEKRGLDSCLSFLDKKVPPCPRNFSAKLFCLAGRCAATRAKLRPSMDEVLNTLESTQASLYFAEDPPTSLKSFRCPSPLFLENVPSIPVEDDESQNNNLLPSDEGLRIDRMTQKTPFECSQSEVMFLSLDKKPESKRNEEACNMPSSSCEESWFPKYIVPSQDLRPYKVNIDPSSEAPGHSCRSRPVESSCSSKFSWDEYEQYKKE
Experiment: IRAK endogenous HTRF degradation assay (Total-IRAK3 HTRF kit)
Format: cell-based
Conditions: overnight incubation, lowest percentage of protein remaining
Method in brief: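 Cells (~50 k) incubated overnight with 3-fold serial dilutions of compound, then lysed; total IRAK3 read by HTRF (665/615 nm ratio ×10,000), normalized to DMSO as 100%. EC50 from four-parameter logistic fit; Dmax = 100 − Ymin (lowest % protein remaining); DC50 = concentration giving 50% degradation.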

SMILES | IRAK3 HTRF degradation Ymin
Cc1cc(-c2cnc(Nc3cnn([C@H]4CCN(CCN5CCN(c6ccc(C7CCC(=O)NC7=O)cc6)C[C@H]5C)[C@@H](C)C4)c3)c3nccn23)c(F)cc1F (stereo partly drawn) [Compound 35, 3-(4-((R)-4-(2-((2S,4S)-4-(4-((5-(2,4-difluoro-5-methylphenyl)imdazo [1,2-a]pyrazin-8-yl)amino)-1H-pyrazol-1-yl)-2-methylpiperidin-1-yl)ethyl)-3-methylpiperazin-1-yl)phenyl) piperidine-2,6-dione] | 7.6%
Cc1cc(-c2cnc(Nc3cnn([C@H]4CCN(CCN5CCN(c6ccc(C7CCC(=O)NC7=O)cc6)CC5)C[C@@H]4F)c3)c3nccn23)c(F)cc1F (stereo partly drawn) [Compound 72, 3-(4-(4-(2-((3S,4S)-4-(4-((5-(2,4-difluoro-5-methylphenyl)imdazo [1,2-a]pyrazin-8-yl)amino)-1H-pyrazol-1-yl)-3-fluoropiperidin-1-yl)ethyl)piperazin-1-yl)phenyl) piperidine-2,6-dione] | 8.3%
O=C1CCC(c2ccc(N3CCN(CCN4CCC(n5cc(Nc6ncc(-c7ccc(F)cc7)n7ccnc67)cn5)CC4)CC3)cc2)C(=O)N1 (stereo not drawn) [Compound 74, 3-(4-(4-(2-(4-(4-((5-(4-fluorophenyl)imidazo [1,2-a]pyrazin-8-yl)amino)-1H-pyrazol-1-yl)piperidin-1-yl)ethyl)piperazin-1-yl)phenyl) piperidine-2,6-dione] | 9.8%
O=C1CCC(c2ccc(N3CCN(CCN4CCC(n5cc(Nc6ncc(-c7ccccc7F)n7ccnc67)cn5)CC4)CC3)cc2)C(=O)N1 (stereo not drawn) [Compound 75, 3-(4-(4-(2-(4-(4-((5-(2-fluorophenyl)imidazo [1,2-a]pyrazin-8-yl)amino)-1H-pyrazol-1-yl)piperidin-1-yl)ethyl)piperazin-1-yl)phenyl) piperidine-2,6-dione] | 9.8%
Cc1cc(-c2cnc(Nc3cnn(C4CCN(CCN5CCN(c6ccc([C@]7(C)CCC(=O)NC7=O)cc6)CC5)CC4)c3)c3nccn23)c(F)cc1F [Compound 76, (S)-3-(4-(4-(2-(4-(4-((5-(2,4-difluoro-5-methylphenyl)imdazo [1,2-a]pyrazin-8-yl)amino)-1H-pyrazol-1-yl)piperidin-1-yl)ethyl)piperazin-1-yl)phenyl)-3-methylpiperidine-2,6-dione] | 64%
Cc1cc(-c2cnc(Nc3cnn(C4CCN(CCN5CCN(c6ccc([C@@]7(C)CCC(=O)NC7=O)cc6)CC5)CC4)c3)c3nccn23)c(F)cc1F [Compound 77, (R)-3-(4-(4-(2-(4-(4-((5-(2,4-difluoro-5-methylphenyl)imdazo [1,2-a]pyrazin-8-yl)amino)-1H-pyrazol-1-yl)piperidin-1-yl)ethyl)piperazin-1-yl)phenyl)-3-methylpiperidine-2,6-dione] | 8.3%
O=C1CCC(c2ccc(N3CCN(CCN4CCC(n5cc(Nc6ncc(-c7cccc(F)c7)n7ccnc67)cn5)CC4)CC3)cc2)C(=O)N1 (stereo not drawn) [Compound 80, 3-(4-(4-(2-(4-(4-((5-(3-fluorophenyl)imidazo [1,2-a]pyrazin-8-yl)amino)-1H-pyrazol-1-yl)piperidin-1-yl)ethyl)piperazin-1-yl)phenyl) piperidine-2,6-dione] | 11%
Cc1cc(-c2cnc(Nc3cnn([C@H]4CC[C@H](CCN5CCN(c6ccc([C@@]7(C)CCC(=O)NC7=O)cc6)CC5)CC4)c3)c3nccn23)c(F)cc1F [Compound 81, (R)-3-(4-(4-(2-((trans)-4-(4-((5-(2,4-difluoro-5-methylphenyl)imidazo[1,2-a]pyrazin-8-yl)amino)-1H-pyrazol-1-yl)cyclohexyl)ethyl)piperazin-1-yl)phenyl)-3-methylpiperidine-2,6-dione] | 7.8%
Cc1cc(-c2cnc(Nc3cnn([C@H]4CC[C@H](CCN5CCN(c6ccc([C@]7(C)CCC(=O)NC7=O)cc6)CC5)CC4)c3)c3nccn23)c(F)cc1F [Compound 82, (S)-3-(4-(4-(2-((trans)-4-(4-((5-(2,4-difluoro-5-methylphenyl)imidazo[1,2-a]pyrazin-8-yl)amino)-1H-pyrazol-1-yl)cyclohexyl)ethyl)piperazin-1-yl)phenyl)-3-methylpiperidine-2,6-dione] | 40%
